From US20250228865A1, “COMPOUNDS FOR ENHANCING READ THROUGH OF GENES CONTAINING PREMATURE TERMINATION CODONS AND METHODS FOR MAKING AND USING THE SAME” (Sanofi US Services Inc., priority 2022, published 2025)

How the values were obtained:
[1] = tested on: CFTR R1162X; assay: Functional CFTR channel activity, TECC-24 electrophysiology, 16HBE cells (CFTR R1162X readthrough); format: cell-based, human; conditions: RTM 5 uM, eRF3 modulator (CC-90009) 10 uM, G418 10 uM
Description: (§1) 16HBE human bronchial epithelial cells were seeded onto Transwell 24-well filter inserts coated with human collagen type IV. Cells were seeded 7 days prior to functional testing at a density of 1.7×10^5 cells onto the “apical” chamber filter of the Transwell insert. Cells were grown as submerged cultures (200 μL apical/700 μL basolateral) in Minimal Essential Medium (MEM) containing 10% qualified Fetal Bovine Serum and 1% Penicillin/Streptomycin and incubated at 37° C. and 5% CO2. Growth media on cells was replenished with fresh media every 1-3 days prior to test agent treatment day. After 7 days in culture, the CFTR-mediated chloride (Cl^−) equivalent current (Ieq) of the 16HBE cells was recorded, which may typically form electrically tight epithelia with a transepithelial resistance (Rt) of 2000-6000 Ω·cm2 as described below. Forty-eight hours prior to electrophysiological measurements, fresh growth media containing the test agents was applied to both chambers separating filter bound epithelial monolayer.
(§2) On the day of electrophysiology studies, electrodes of a “Multi-(24-channel) transepithelial current clamp amplifier” (MTECC-24 (TECC-24 for short), EP Devices, Belgium) were soaked in an assay buffer (see below for composition) for at least 2 hours using 24-well Transwell plates without inserts. Cell culture media was replaced in the Transwell assay plates with assay buffer (see below) and the plates were mounted onto a custom-built automated robotic assay platform (Yamaha RCX240S controller) with heated plate holders set at 37° C. for 60 min. After equilibration, transepithelial potential difference (PD) and resistance (Rt) was monitoredat ˜5 min intervals using the TECC-24 transepithelial current clamp. Electrode potential differences were monitored for each pair of Ag/AgCl voltage electrodes by taking voltage measurements from a control (“blank”) plate with matching buffer solutions and 16HBE cells that were not treated with any test agent. PD values for each electrode pair were subtracted from the blank plate from that of the test plates at each time point. Ieq was calculated from the corrected PD values and Rt using Ohm's law. Ieq values were slope corrected to account for measurement drift over time using the equation: Slope corrected value=calculated Ieq−((time x slope)+y-intercept) with the slope and y-intercept calculated from the data points captured during the initial baseline period and following addition of the CFTR inhibitor.
(§3) The equivalent current (Ieq) traces associated with CFTR channel activation were plotted as baseline subtracted mean±standard deviation from 3-4 separate wells on the 24-well Transwell (n=3-4). There are 4 recording periods, with the first set of data points recorded baseline Ieq currents prior to sequential activation of available CFTR channels with forskolin (10 μM) and then in combination with potentiator VX-770/ivacaftor (1 μM). Recorded the last set of data points in the presence of CFTR inhibitor CFTRinh-172 (20 μM) to confirm that currents are mediated via activation of CFTR channels. The test agents and control/reference compounds were pre-diluted to 10-fold concentrations in assay buffer and added manually using a multi-channel pipette to both the basolateral and apical side of the membrane (test plates only). Employed CFTR-mediated changes in Ieq, (i.e. forskolin/VX-770 activated currents) to measure functional CFTR surface expression or treatment-related functional rescue of mutant CFTR.
(§4) The magnitude of test agent mediated enhancement of functional CFTR currents was calculated by comparing forskolin/VX-770 stimulated Ieq relative to baseline/CFTRinh-172 Ieq following 48 hour pretreatment with test agent(s) and normalizing to the forskolin/VX-770 stimulated Ieq determined following 48 hour pretreatment with a maximally effective concentration a reference control aminoglycoside agent (typically 110 μM G418). […]

[2] = tested on: CFTR G542X; assay: Functional CFTR channel activity, TECC-24 electrophysiology, 16HBE cells (CFTR G542X readthrough); format: cell-based, human
Description: as §1, §2, §3, §4

[3] = RTM 1 uM, no eRF3 modulator, ELX-02 100 uM
[4] = RTM conc. —, eRF3 modulator (CC-90009) 1 uM, ELX-02 100 uM
[5] = RTM 1 uM, eRF3 modulator (CC-90009) 1 uM, ELX-02 100 uM

O=C1O[C@@H](CO)CN1c1ccc(OCc2c(Cl)cccc2Cl)cc1 [drawing 820]
Currents (% of 110 μM G418 (Max effect)) [1]: 320 % of 110 μM G418 (Max effect)

OCc1cn(-c2ncc(OCc3c(Cl)cccc3Cl)cn2)cn1 [drawing 821]
Currents (% of 110 μM G418 (Max effect)) ([2]; RTM 0.5 uM, no eRF3 modulator, G418 10 uM): 78 % of 110 μM G418 (Max effect)

OCc1cn(-c2ncc(OCc3c(Cl)cccc3Cl)cn2)cn1 [drawing 822]
Currents (% of 110 μM G418 (Max effect)) ([2]; RTM 0.5 uM, eRF3 modulator (CC-90009) 1 uM, G418 10 uM): 429 % of 110 μM G418 (Max effect)

OCc1cn(-c2ncc(OCc3c(Cl)cccc3Cl)cn2)cn1 [drawing 823]
Currents (% of 110 μM G418 (Max effect)) ([2]; RTM 0.5 uM, no eRF3 modulator, ELX-02 100 uM): 50 % of 110 μM G418 (Max effect)

OCc1cn(-c2ncc(OCc3c(Cl)cccc3Cl)cn2)cn1 [drawing 824]
Currents (% of 110 μM G418 (Max effect)) ([2]; RTM 0.5 uM, eRF3 modulator (CC-90009) 1 uM, ELX-02 100 uM): 421 % of 110 μM G418 (Max effect)

OCc1ccn(-c2ncc(OCc3c(Cl)cccc3Cl)cn2)n1 [drawing 825]
Currents (% of 110 μM G418 (Max effect)) [2, 3]: 94 % of 110 μM G418 (Max effect)

OCc1ccn(-c2ncc(OCc3c(Cl)cccc3Cl)cn2)n1 [drawing 826]
Currents (% of 110 μM G418 (Max effect)) [2, 4]: 83 % of 110 μM G418 (Max effect)

OCc1ccn(-c2ncc(OCc3c(Cl)cccc3Cl)cn2)n1 [drawing 827]
Currents (% of 110 μM G418 (Max effect)) [2, 5]: 278 % of 110 μM G418 (Max effect)

Cc1cccc(C(F)(F)F)c1COc1ccc(-c2nc(CO)n[nH]2)cc1 [drawing 828]
Currents (% of 110 μM G418 (Max effect)) [2, 3]: 109 % of 110 μM G418 (Max effect)

Cc1cccc(C(F)(F)F)c1COc1ccc(-c2nc(CO)n[nH]2)cc1 [drawing 829]
Currents (% of 110 μM G418 (Max effect)) [2, 4]: 83 % of 110 μM G418 (Max effect)

Cc1cccc(C(F)(F)F)c1COc1ccc(-c2nc(CO)n[nH]2)cc1 [drawing 830]
Currents (% of 110 μM G418 (Max effect)) [2, 5]: 263 % of 110 μM G418 (Max effect)

O=C1N[C@H](CO)CN1c1ccc(OCc2c(Cl)cccc2Cl)cn1 [drawing 831]
Currents (% of 110 μM G418 (Max effect)) [2, 3]: 79 % of 110 μM G418 (Max effect)

O=C1N[C@H](CO)CN1c1ccc(OCc2c(Cl)cccc2Cl)cn1 [drawing 832]
Currents (% of 110 μM G418 (Max effect)) [2, 4]: 83 % of 110 μM G418 (Max effect)

O=C1N[C@H](CO)CN1c1ccc(OCc2c(Cl)cccc2Cl)cn1 [drawing 833]
Currents (% of 110 μM G418 (Max effect)) [2, 5]: 293 % of 110 μM G418 (Max effect)

OCc1ncn(-c2ncc(OCc3c(Cl)cccc3C(F)(F)F)cn2)n1 [drawing 834]
Currents (% of 110 μM G418 (Max effect)) ([2]; RTM 3 uM, no eRF3 modulator, ELX-02 100 uM): 111 % of 110 μM G418 (Max effect)

OCc1ncn(-c2ncc(OCc3c(Cl)cccc3C(F)(F)F)cn2)n1 [drawing 835]
Currents (% of 110 μM G418 (Max effect)) [2, 4]: 60 % of 110 μM G418 (Max effect)

OCc1ncn(-c2ncc(OCc3c(Cl)cccc3C(F)(F)F)cn2)n1 [drawing 836]
Currents (% of 110 μM G418 (Max effect)) ([2]; RTM 3 uM, eRF3 modulator (CC-90009) 1 uM, ELX-02 100 uM): 263 % of 110 μM G418 (Max effect)

OCc1cn(-c2ncc(OCc3c(Cl)cccc3Cl)cn2)cn1 [drawing 837]
Currents (% of 110 μM G418 (Max effect)) ([2]; RTM 0.5 uM, no eRF3 modulator, Paramomycin 2000 uM): 5 % of 110 μM G418 (Max effect)

OCc1cn(-c2ncc(OCc3c(Cl)cccc3Cl)cn2)cn1 [drawing 838]
Currents (% of 110 μM G418 (Max effect)) ([2]; RTM 0.5 uM, eRF3 modulator (CC-90009) 1 uM, Paramomycin 2000 uM): 140 % of 110 μM G418 (Max effect)

Cc1cccc(C(F)(F)F)c1COc1ccc(N2CC(CO)OC2=O)cc1 (centres unmarked) [drawing 839]
Currents (% of 110 μM G418 (Max effect)) ([2]; RTM 1 uM, no eRF3 modulator, G418 10 uM): 76 % of 110 μM G418 (Max effect)

Cc1cccc(C(F)(F)F)c1COc1ccc(N2CC(CO)OC2=O)cc1 (centres unmarked) [drawing 840]
Currents (% of 110 μM G418 (Max effect)) ([2]; RTM 1 uM, eRF3 modulator (CC-90009) 1 uM, G418 10 uM): 290 % of 110 μM G418 (Max effect)

O=C1O[C@H](CO)CN1c1ccc(OCc2c(Cl)cccc2Cl)cc1 [drawing 841]
Currents (% of 110 μM G418 (Max effect)) ([2]; RTM 5 uM, no eRF3 modulator, G418 10 uM): 54 % of 110 μM G418 (Max effect)

O=C1O[C@H](CO)CN1c1ccc(OCc2c(Cl)cccc2Cl)cc1 [drawing 842]
Currents (% of 110 μM G418 (Max effect)) ([2]; RTM 5 uM, eRF3 modulator (CC-90009) 10 uM, G418 10 uM): 323 % of 110 μM G418 (Max effect)
